Values after ≈ are worked out from the molar mass of the structure shown.
Tests used:
Format in all cases: functional
Staphylococcus aureus [1] = test: In vitro activity against MRSA (A27621; homogeneous strain) by standard broth dilution method
Staphylococcus aureus [2] = test: In vitro activity against MRSA (A27217; heterogeneous strain) by standard broth dilution method
Staphylococcus aureus [3] = test: In vitro activity against MRSA (A27226; homogeneous strain) by standard broth dilution method
Staphylococcus aureus [4] = test: In vitro activity against MSSA (A15090) by standard broth dilution method
Staphylococcus aureus [5] = test: In vitro activity against MSSA (A20241) by standard broth dilution method
Staphylococcus aureus [6] = test: In vitro activity against MRSA (A27223; homogeneous strain) by standard broth dilution method
[7] = In vivo inhibitory activity of compound against staphylococcus aureus; […]; conditions: read-out: PD50
[8] = In vivo inhibitory activity of compound against staphylococcus aureus; conditions: read-out: PD50
[9] = Staphylococcus aureus, read-out: MIC

SMILES	MIC (Staphylococcus aureus [1]; [9])	MIC (Staphylococcus aureus [2]; [9])	MIC (Staphylococcus aureus [3]; [9])	MIC (Staphylococcus aureus [4]; [9])	MIC (Staphylococcus aureus [5]; [9])	MIC (Staphylococcus aureus [6]; [9])	ED50 [7]	MIC (Staphylococcus aureus [1])	MIC (Staphylococcus aureus [2])	ED50 [8]	MIC (Staphylococcus aureus [3])	MIC (Staphylococcus aureus [4])	MIC (Staphylococcus aureus [5])	MIC (Staphylococcus aureus [6])
O=C(CSc1cc(Cl)ccc1Cl)N[C@@H]1C(=O)N2C(C(=O)[O-])=C(C[n+]3ccc4ccccc4c3)CS[C@H]12	2 µg/mL (≈ 3.57 µM)	2 µg/mL (≈ 3.57 µM)	2 µg/mL (≈ 3.57 µM)	0.5 µg/mL (≈ 0.892 µM)	0.5 µg/mL (≈ 0.892 µM)	2 µg/mL (≈ 3.57 µM)	–	–	–	–	–	–	–	–
O=C(C[N+]12CCN(CC1)CC2)N[C@@H]1C(=O)N2C(C(=O)[O-])=C(CSc3cc(Cl)ccc3Cl)CS[C@H]12	128 µg/mL (≈ 236 µM)	128 µg/mL (≈ 236 µM)	128 µg/mL (≈ 236 µM)	4 µg/mL (≈ 7.36 µM)	4 µg/mL (≈ 7.36 µM)	128 µg/mL (≈ 236 µM)	–	–	–	–	–	–	–	–
O=C(CSc1cc(Cl)ccc1Cl)N[C@@H]1C(=O)N2C(C(=O)[O-])=C(C[n+]3ccn4ccccc43)CS[C@H]12	2 µg/mL (≈ 3.64 µM)	2 µg/mL (≈ 3.64 µM)	1 µg/mL (≈ 1.82 µM)	0.25 µg/mL (≈ 0.455 µM)	0.5 µg/mL (≈ 0.91 µM)	4 µg/mL (≈ 7.28 µM)	–	–	–	–	–	–	–	–
NCCC(=O)NC1C[N+]2(CC3=C(C(=O)[O-])N4C(=O)[C@@H](NC(=O)CSc5cc(Cl)ccc5Cl)[C@H]4SC3)CCC1CC2 (stereo partly drawn)	4 µg/mL (≈ 6.36 µM)	2 µg/mL (≈ 3.18 µM)	4 µg/mL (≈ 6.36 µM)	1 µg/mL (≈ 1.59 µM)	1 µg/mL (≈ 1.59 µM)	4 µg/mL (≈ 6.36 µM)	–	–	–	–	–	–	–	–
O=C(CSc1cc(Cl)ccc1Cl)N[C@@H]1C(=O)N2C(C(=O)[O-])=C(C[n+]3cccc4c3CCCC4)CS[C@H]12	2 µg/mL (≈ 3.54 µM)	1 µg/mL (≈ 1.77 µM)	1 µg/mL (≈ 1.77 µM)	0.5 µg/mL (≈ 0.886 µM)	0.5 µg/mL (≈ 0.886 µM)	2 µg/mL (≈ 3.54 µM)	–	–	–	–	–	–	–	–
NCC(=O)NC1C[N+]2(CC3=C(C(=O)[O-])N4C(=O)[C@@H](NC(=O)CSc5cc(Cl)ccc5Cl)[C@H]4SC3)CCC1CC2 (stereo partly drawn)	4 µg/mL (≈ 6.51 µM)	4 µg/mL (≈ 6.51 µM)	2 µg/mL (≈ 3.25 µM)	0.5 µg/mL (≈ 0.814 µM)	0.5 µg/mL (≈ 0.814 µM)	4 µg/mL (≈ 6.51 µM)	–	–	–	–	–	–	–	–
C[N+]1(CC2=C(C(=O)[O-])N3C(=O)[C@@H](NC(=O)CSc4cc(Cl)ccc4Cl)[C@H]3SC2)[C@@H]2CC[C@H]1C[C@@H](O)C2 (stereo in doubt; 6r)	2 µg/mL (≈ 3.49 µM)	1 µg/mL (≈ 1.75 µM)	2 µg/mL (≈ 3.49 µM)	0.25 µg/mL (≈ 0.437 µM)	0.25 µg/mL (≈ 0.437 µM)	2 µg/mL (≈ 3.49 µM)	0.8 mg/kg	–	–	–	–	–	–	–
O=C(CSc1cc(Cl)ccc1Cl)N[C@@H]1C(=O)N2C(C(=O)[O-])=C(C[N+]34CCC(CC3)CC4)CS[C@H]12	4 µg/mL (≈ 7.37 µM)	2 µg/mL (≈ 3.69 µM)	4 µg/mL (≈ 7.37 µM)	1 µg/mL (≈ 1.84 µM)	1 µg/mL (≈ 1.84 µM)	2 µg/mL (≈ 3.69 µM)	–	–	–	–	–	–	–	–
O=C(CSc1cc(Cl)ccc1Cl)N[C@@H]1C(=O)N2C(C(=O)[O-])=C(C[n+]3ccc4c(c3)CCCC4)CS[C@H]12	4 µg/mL (≈ 7.09 µM)	2 µg/mL (≈ 3.54 µM)	2 µg/mL (≈ 3.54 µM)	0.5 µg/mL (≈ 0.886 µM)	0.5 µg/mL (≈ 0.886 µM)	4 µg/mL (≈ 7.09 µM)	–	–	–	–	–	–	–	–
O=C(CSc1cc(Cl)ccc1Cl)N[C@@H]1C(=O)N2C(C(=O)[O-])=C(C[N+]34CCC(CC3)C(O)C4)CS[C@H]12 (stereo partly drawn)	1 µg/mL (≈ 1.79 µM)	1 µg/mL (≈ 1.79 µM)	1 µg/mL (≈ 1.79 µM)	0.25 µg/mL (≈ 0.448 µM)	0.25 µg/mL (≈ 0.448 µM)	1 µg/mL (≈ 1.79 µM)	–	–	–	–	–	–	–	–
NC(=O)COc1cccc2c[n+](CC3=C(C(=O)[O-])N4C(=O)[C@@H](NC(=O)CSc5cc(Cl)ccc5Cl)[C@H]4SC3)ccc12	2 µg/mL (≈ 3.16 µM)	2 µg/mL (≈ 3.16 µM)	2 µg/mL (≈ 3.16 µM)	1 µg/mL (≈ 1.58 µM)	1 µg/mL (≈ 1.58 µM)	2 µg/mL (≈ 3.16 µM)	–	–	–	–	–	–	–	–
O=C(CSc1cc(Cl)ccc1Cl)N[C@@H]1C(=O)N2C(C(=O)[O-])=C(C[n+]3cccc4[nH]cnc43)CS[C@H]12	2 µg/mL (≈ 3.63 µM)	1 µg/mL (≈ 1.82 µM)	1 µg/mL (≈ 1.82 µM)	0.125 µg/mL (≈ 0.227 µM)	0.125 µg/mL (≈ 0.227 µM)	2 µg/mL (≈ 3.63 µM)	–	–	–	–	–	–	–	–
C[N+]1(CC2=C(C(=O)[O-])N3C(=O)[C@@H](NC(=O)CSc4cc(Cl)ccc4Cl)[C@H]3SC2)[C@@H]2CC[C@H]1C[C@@H](O)C2 (stereo in doubt; 6s)	–	–	–	–	–	–	–	2 µg/mL (≈ 3.49 µM)	1 µg/mL (≈ 1.75 µM)	9.5 mg/kg	4 µg/mL (≈ 6.99 µM)	0.125 µg/mL (≈ 0.218 µM)	0.125 µg/mL (≈ 0.218 µM)	4 µg/mL (≈ 6.99 µM)
C[N+]1(CC2=C(C(=O)[O-])N3C(=O)[C@@H](NC(=O)CSc4cc(Cl)ccc4Cl)[C@H]3SC2)C2CCC1CC(=O)C2 (stereo partly drawn)	4 µg/mL (≈ 7.01 µM)	2 µg/mL (≈ 3.51 µM)	4 µg/mL (≈ 7.01 µM)	0.5 µg/mL (≈ 0.876 µM)	0.5 µg/mL (≈ 0.876 µM)	4 µg/mL (≈ 7.01 µM)	–	–	–	–	–	–	–	–
O=C(CSc1cc(Cl)ccc1Cl)N[C@@H]1C(=O)N2C(C(=O)[O-])=C(C[N+]34CN5CN(CN(C5)C3)C4)CS[C@H]12	8 µg/mL (≈ 14 µM)	4 µg/mL (≈ 7 µM)	8 µg/mL (≈ 14 µM)	0.125 µg/mL (≈ 0.219 µM)	0.125 µg/mL (≈ 0.219 µM)	8 µg/mL (≈ 14 µM)	–	–	–	–	–	–	–	–
O=C(CSc1cc(Cl)ccc1Cl)N[C@@H]1C(=O)N2C(C(=O)[O-])=C(C[N+]34CCN(CC3)CC4)CS[C@H]12	4 µg/mL (≈ 7.36 µM)	2 µg/mL (≈ 3.68 µM)	4 µg/mL (≈ 7.36 µM)	0.25 µg/mL (≈ 0.46 µM)	0.5 µg/mL (≈ 0.92 µM)	4 µg/mL (≈ 7.36 µM)	0.8 mg/kg	–	–	–	–	–	–	–
O=C(CSc1cc(Cl)ccc1Cl)N[C@@H]1C(=O)N2C(C(=O)[O-])=C(C[n+]3cccc4cc[nH]c43)CS[C@H]12	2 µg/mL (≈ 3.64 µM)	1 µg/mL (≈ 1.82 µM)	2 µg/mL (≈ 3.64 µM)	1 µg/mL (≈ 1.82 µM)	1 µg/mL (≈ 1.82 µM)	2 µg/mL (≈ 3.64 µM)	–	–	–	–	–	–	–	–
NC(=O)c1ccc2n(cc[n+]2CC2=C(C(=O)[O-])N3C(=O)[C@@H](NC(=O)CSc4cc(Cl)ccc4Cl)[C@H]3SC2)c1	2 µg/mL (≈ 3.38 µM)	2 µg/mL (≈ 3.38 µM)	2 µg/mL (≈ 3.38 µM)	0.5 µg/mL (≈ 0.844 µM)	1 µg/mL (≈ 1.69 µM)	2 µg/mL (≈ 3.38 µM)	–	–	–	–	–	–	–	–
O=C(CSc1cc(Cl)ccc1Cl)N[C@@H]1C(=O)N2C(C(=O)[O-])=C(C[n+]3ccc4c(O)cccc4c3)CS[C@H]12	1 µg/mL (≈ 1.73 µM)	1 µg/mL (≈ 1.73 µM)	1 µg/mL (≈ 1.73 µM)	1 µg/mL (≈ 1.73 µM)	1 µg/mL (≈ 1.73 µM)	1 µg/mL (≈ 1.73 µM)	–	–	–	–	–	–	–	–
C[N+]1(CC2=C(C(=O)[O-])N3C(=O)[C@@H](NC(=O)CSc4cc(Cl)ccc4Cl)[C@H]3SC2)C2CCCC1CC2 (stereo partly drawn)	2 µg/mL (≈ 3.59 µM)	2 µg/mL (≈ 3.59 µM)	2 µg/mL (≈ 3.59 µM)	0.25 µg/mL (≈ 0.449 µM)	0.25 µg/mL (≈ 0.449 µM)	2 µg/mL (≈ 3.59 µM)	–	–	–	–	–	–	–	–

Source: ChEMBL document CHEMBL1129214, “Synthesis and structure-activity relationship of C-3 quaternary ammonium cephalosporins exhibiting anti-MRSA activities” (1997)
